# Like-named read-outs stand apart in the source and are kept apart here.
# Assays:
# Puccinia recondita [1] = assay: Curative activity against brown rust of wheat; assay type: in vivo; conditions: sprayed the day after inoculation, 7 days
# [2] = tested on: Erysiphe [syn. Blumeria] graminis forma specialis. tritici; assay: Activity against mildew of wheat; assay type: in vivo; conditions: 1 mg/l, sprayed 24 hours before inoculation, rated after 7 days
# Pyrenophora teres = assay: Activity against net blotch of barley, 1 day protective application; assay type: in vivo, Pyrenophora [syn. Drechslera] teres; conditions: sprayed 24 hours before inoculation, rated after 6 days
# Botrytis cinerea = assay: Activity against gray mold on bell pepper leaves, 1 day protective application; assay type: in vivo; conditions: sprayed 1 day before inoculation, rated after 5 days
# Pyricularia oryzae = assay type: cell-based; conditions: microtiter plate, 405 nm, day 7
# Septoria tritici = assay: Activity against the speckled leaf blotch pathogen in the microtiter test; assay type: cell-based; conditions: microtiter plate, 405 nm, day 7
# Puccinia recondita [3] = assay: Protective activity against brown rust of wheat; assay type: in vivo; conditions: 16 mg/l, sprayed the day before inoculation
compound,measurement,setting,value
"Cn1cc(C(=O)Nc2ccccc2-c2cccc(C(F)(F)F)c2)c(C(F)F)n1 [No. I.9, N-(3′-trifluoromethylbiphenyl-2-yl)-1-methyl-3-difluoromethyl-1H-pyrazole-4-carboxamide]",Observed activity (% infection),Puccinia recondita [1]; 0.25 mg/l,11%
same,melting point,,124 to 125 °C
same,Observed activity (% infection),[2],0%
"Cn1cc(C(=O)Nc2ccccc2-c2cccc(C#N)c2)c(C(F)(F)F)n1 [No. I.5, 1-methyl-3-trifluoromethyl-N-(ortho-(3-cyanophenyl)phenyl)pyrazole-4-carboxamide]",melting point,,76 to 78 °C
"COc1ccc(C(=CC(=O)N2CCOCC2)c2ccc(Cl)cc2)cc1OC [dimethomorph, 3-(4-chlorophenyl)-3-(3,4-dimethoxyphenyl)-1-morpholin-4-yl-propenone]",Observed activity (% infection),Puccinia recondita [1]; 1 mg/l,0%
same,Observed activity (% infection),Pyrenophora teres; 16 mg/l,0%
"Cc1nn(C)c(F)c1C(=O)Nc1ccccc1-c1cccc(C(F)(F)F)c1 [No. I.17, N-(3′-trifluoromethylbiphenyl-2-yl)-1,3-dimethyl-5-fluoro-1H-pyrazole-4-carboxamide]",melting point,,113 to 114 °C
"Cc1nn(C)c(F)c1C(=O)Nc1ccccc1-c1cccc(C#N)c1 [No. I.15, N-(3′-cyanobiphenyl-2-yl)-1,3-dimethyl-5-fluoro-1H-pyrazole-4-carboxamide]",melting point,,137 to 138 °C
"Cn1cc(C(=O)Nc2ccccc2-c2cccc(F)c2)c(CF)n1 [No. I.13, N-(3′-fluorobiphenyl-2-yl)-1-methyl-3-fluoromethyl-1H-pyrazole-4-carboxamide]",melting point,,138 to 141 °C
"COC(=O)N(OC)c1ccccc1COc1ccn(-c2ccc(Cl)cc2)n1 [pyraclostrobin, methyl N-{2-[1-(4-chlorophenyl)-1H-pyrazol-3-yloxymethyl]phenyl}(N-methoxy)carbamate, reference compound]",Observed activity (% infection),[2],40%
"COc1cc(C)c(C(=O)c2c(OC)ccc(Br)c2C)c(OC)c1OC [metrafenone, 3′-bromo-2,3,4,6′-tetramethoxy-2′,6-dimethylbenzophenone]",Observed activity (% infection),Puccinia recondita [1]; 1 mg/l,0%
same,Observed activity (% infection),Pyrenophora teres; 16 mg/l,0%
"CC1CCN(c2c(-c3c(F)cc(F)cc3F)c(Cl)nc3ncnn23)CC1 [5-chloro-7-(4-methylpiperidin-1-yl)-6-(2,4,6-trifluorophenyl)-[1,2,4]triazolo[1,5-a]pyrimidine, reference compound]",Observed activity (% infection),Puccinia recondita [1]; 1 mg/l,0%
same,Observed activity (% infection),Botrytis cinerea; 4 mg/l,40%
"Cn1cc(C(=O)Nc2ccccc2-c2cccc(Cl)c2)c(C(F)F)n1 [No. I.12, N-(3′-chlorobiphenyl-2-yl)-1-methyl-3-difluoromethyl-1H-pyrazole-4-carboxamide]",melting point,,110 to 112 °C
"Cn1cc(C(=O)Nc2ccccc2-c2cccc(Cl)c2)c(CF)n1 [No. I.11, N-(3′-chlorobiphenyl-2-yl)-1-methyl-3-fluoromethyl-1H-pyrazole-4-carboxamide]",melting point,,96 to 99 °C
"zinc ammoniate ethylenebis(dithiocarbamate) [metiram, reference compound]",Observed activity (% infection),Pyricularia oryzae; 16 mg/l,52%
same,Observed activity (% infection),Septoria tritici; 1 mg/l,1%
"Fc1ccc([C@]2(Cn3cncn3)O[C@H]2c2ccccc2Cl)cc1 (racemic) [epoxiconazole, (2RS,3SR)-1-[3-(2-chlorophenyl)-2,3-epoxy-2-(4-fluorophenyl)propyl]-1H-1,2,4-triazole]",Observed activity (% infection),Pyrenophora teres; 1 mg/l,0%
"Cc1nn(C)c(F)c1C(=O)Nc1ccccc1-c1cccc([N+](=O)[O-])c1 [No. I.16, N-(3′-nitrobiphenyl-2-yl)-1,3-dimethyl-5-fluoro-1H-pyrazole-4-carboxamide]",melting point,,137 to 139 °C
"Cc1nn(C)cc1C(=O)Nc1ccccc1-c1cccc(Cl)c1 [No. I.10, N-(3′-chlorobiphenyl-2-yl)-1,3-dimethyl-1H-pyrazole-4-carboxamide]",melting point,,104 to 106 °C
"CC1(C)CC/C(=C\c2ccc(Cl)cc2)C1(O)Cn1cncn1 (stereo not shown) [triticonazole, (5E)-5-[(4-chlorophenyl)methylene]-2,2-dimethyl-1-(1H-1,2,4-triazol-1-ylmethyl)cyclopentanol, reference compound]",Observed activity (% infection),[2],40%
"Cn1cc(C(=O)Nc2ccccc2-c2cccc(Cl)c2)c(C(F)(F)F)n1 [No. I.1, N-(3′-chlorobiphenyl-2-yl)-1-methyl-3-trifluoromethyl-1H-pyrazole-4-carboxamide]",Observed activity (% infection),Pyricularia oryzae; 4 mg/l,0%
same,melting point,,92 to 94 °C
same,Observed activity (% infection),Botrytis cinerea; 1 mg/l,0%
same,Observed activity (% infection),[2],0%
same,Observed activity (% infection),Pyrenophora teres; 4 mg/l,26%
"Cn1cc(C(=O)Nc2ccccc2-c2cccc(C(F)(F)F)c2)c(C(F)(F)F)n1 [No. I.4, N-(3′-trifluoromethylbiphenyl-2-yl)-1-methyl-3-trifluoromethyl-1H-pyrazole-4-carboxamide]",melting point,,132 to 134 °C
same,Observed activity (% infection),Septoria tritici; 0.25 mg/l,20%
same,Observed activity (% infection),Puccinia recondita [3],0%
"Cn1cc(C(=O)Nc2ccccc2-c2cccc(F)c2)c(C(F)F)n1 [No. I.14, N-(3′-fluorobiphenyl-2-yl)-1-methyl-3-difluoromethyl-1H-pyrazole-4-carboxamide]",melting point,,130 to 135 °C
